Measurements: patent US20250034185A1 (priority 2021, published 2025)

Test system: plasma enzymes
Conditions: not given
Throughout, for P5P formed: test concentration or dose not given here.

SMILES	stability in DMSO (stock solution)
Cc1ncc(COP(=O)(N[C@@H](C)C(=O)Oc2ccc3ccccc3c2)Oc2ccccc2)c(C=O)c1O (stereo partly drawn) [Compound 16xiv, (2S)-Naphthalen-2-yl 2-(((4-formyl-5-hydroxy-6-methylpyridin-3-yl)methoxy)(phenoxy)phosphorylamino)propanoate]	unstable in DMSO
Cc1ncc(COP(=O)(NCC(=O)OC(C)C)Oc2ccccc2)c(C=O)c1O (centres unmarked) [Compound 16xv, Isopropyl 2-(((4-formyl-5-hydroxy-6-methylpyridin-3-yl)methoxy)(phenoxy)phosphorylamino)acetate]	unstable in DMSO

Same assay, conditions: Sprague Dawley, rat

SMILES	P5P formed [µM]	relative P5P formed [%]
Cc1ncc(COP(=O)(NC(CC(F)(F)F)C(=O)OC(C)C)Oc2ccccc2)c(CO)c1O (centres unmarked) [Compound 15xiv, Isopropyl 4,4,4-trifluoro-2-(((5-hydroxy-4-(hydroxymethyl)-6-methylpyridin-3-yl)methoxy)(phenoxy)phosphorylamino)butanoate]	0.1	2.6
[2H]c1c([2H])c([2H])c(OP(=O)(N[C@@H](C)C(=O)OC(C)C)OCc2cnc(C)c(O)c2CO)c([2H])c1[2H] (some centres unmarked) [Compound 15xix]	0.4	7.4
Cc1ncc(COP(=O)(N[C@@H](C)C(=O)OC(C)C)Oc2ccccc2)c(CO)c1OC(=O)c1ccccc1 (stereo partly drawn) [Compound 15xvii, (2S)-Isopropyl 2-(((5-benzoyloxy-4-(hydroxymethyl)-6-methylpyridin-3-yl)methoxy)(phenoxy)phosphorylamino)propanoate]	0.3	8.3
[2H]C([2H])([2H])c1ncc(C([2H])([2H])OP(=O)(N[C@@H](C)C(=O)OC(C)C)Oc2ccccc2)c(CO)c1O (some centres unmarked) [Compound 15xxxi]	0.5	20.0
CCC(CC)COC(=O)[C@H](C)NP(=O)(OCc1cnc(C)c(O)c1CO)Oc1ccccc1 (some centres unmarked) [Compound 15xxxiv]	0	0.0
Cc1ncc(COP(=O)(N[C@@H](C)C(=O)OC(C)C)Oc2cccc3ccccc23)c(C=O)c1O (stereo partly drawn) [Compound 16iv, (2S)-Isopropyl 2-(((4-formyl-5-hydroxy-6-methylpyridin-3-yl)methoxy)(naphthalen-1-yloxy)phosphorylamino)propanoate]	1.8	47.4
Cc1ncc(COP(=O)(N[C@@H](C)C(=O)OCc2ccccc2)Oc2ccccc2)c(C=O)c1O (stereo partly drawn) [Compound 16ix, (2S)-Benzyl 2-(((4-formyl-5-hydroxy-6-methylpyridin-3-yl)methoxy)(phenoxy)phosphorylamino)propanoate]	10.3	98.1
Cc1ncc(COP(=O)(N[C@@H](C)C(=O)OCC2CCCC2)Oc2ccccc2)c(C=O)c1O (stereo partly drawn) [Compound 16x, (2S)-Cyclopentylmethyl 2-(((4-formyl-5-hydroxy-6-methylpyridin-3-yl)methoxy)(phenoxy)phosphorylamino)propanoate]	1.95	121.9
Cc1ncc(COP(=O)(N[C@@H](C)C(=O)Oc2ccc(Cl)cc2)Oc2ccccc2)c(C=O)c1O (stereo partly drawn) [Compound 16xL, (2S)-4-Chlorophenyl 2-(((4-formyl-5-hydroxy-6-methylpyridin-3-yl)methoxy)(phenoxy)phosphorylamino)propanoate]	3.6	171.4
Cc1ncc(COP(=O)(NC(CC(F)(F)F)C(=O)OC(C)C)Oc2ccccc2)c(C=O)c1O (centres unmarked) [Compound 16xi, Isopropyl 4,4,4-trifluoro-2-(((4-formyl-5-hydroxy-6-methylpyridin-3-yl)methoxy)(phenoxy)phosphorylamino)butanoate]	0.6	15.8
Cc1ncc(COP(=O)(N[C@@H](Cc2cn(C(=O)OC(C)(C)C)c3ccccc23)C(=O)OC(C)C)Oc2ccccc2)c(C=O)c1O (stereo partly drawn) [Compound 16xiii, Tert-butyl 3-((2S)-2-(((4-formyl-5-hydroxy-6-methylpyridin-3-yl)methoxy)(phenoxy)phosphorylamino)-3-isopropoxy-3-oxopropyl)-1H-indole-1-carboxylate]	0.3	7.9
[2H]c1c([2H])c([2H])c(OP(=O)(N[C@@H](C)C(=O)OC(C)C)OCc2cnc(C)c(O)c2C=O)c([2H])c1[2H] (some centres unmarked) [Compound 16xx]	1.4	38.9
[2H]C([2H])([2H])C([2H])(OC(=O)[C@H](C)NP(=O)(OCc1cnc(C)c(O)c1C=O)Oc1ccccc1)C([2H])([2H])[2H] (some centres unmarked) [Compound 16xxi]	0.3	17.6
[2H]C([2H])([2H])C(OC(=O)[C@H](C)NP(=O)(OCc1cnc(C)c(O)c1C=O)Oc1ccccc1)C([2H])([2H])[2H] (some centres unmarked) [Compound 16xxii]	6.3	153.7
Cc1ccc(OC(=O)[C@H](C)NP(=O)(OCc2cnc(C)c(O)c2C=O)Oc2ccccc2)cc1 (stereo partly drawn) [Compound 16xxiii, (2S)-p-Tolyl 2-(((4-formyl-5-hydroxy-6-methylpyridin-3-yl)methoxy)(phenoxy)phosphorylamino)propanoate]	2	74.1
Cc1ncc(COP(=O)(N[C@@H](C)C(=O)OC2CCCC2)Oc2ccccc2)c(C=O)c1O (stereo partly drawn) [Compound 16xxiv, (2S)-Cyclopentyl 2-(((4-formyl-5-hydroxy-6-methylpyridin-3-yl)methoxy)(phenoxy)phosphorylamino)propanoate]	2.2	129.4
Cc1ncc(COP(=O)(N[C@@H](Cc2ccc(OCc3ccccc3)cc2)C(=O)OC(C)C)Oc2ccccc2)c(C=O)c1O (stereo partly drawn) [Compound 16xxix, (2S)-Isopropyl 3-(4-(benzyloxy)phenyl)-2-(((4-formyl-5-hydroxy-6-methylpyridin-3-yl)methoxy)(phenoxy)phosphorylamino)propanoate]	2.4	58.5
[2H]C([2H])(OP(=O)(N[C@@H](C)C(=O)OC(C)C)Oc1ccccc1)c1cnc(C)c(O)c1C=O (some centres unmarked) [Compound 16xxvii]	2	69.0
Cc1ncc(COP(=O)(N[C@H](C(=O)OC(C)C)C2CCCC2)Oc2ccccc2)c(C=O)c1O (stereo partly drawn) [Compound 16xxviii, (2S)-Isopropyl 2-cyclopentyl-2-(((4-formyl-5-hydroxy-6-methylpyridin-3-yl)methoxy)(phenoxy)phosphorylamino)acetate]	0.4	9.8
Cc1ncc(COP(=O)(N[C@@H](Cc2ccc(O)cc2)C(=O)OC(C)C)Oc2ccccc2)c(C=O)c1O (stereo partly drawn) [Compound 16xxx, (2S)-Isopropyl 2-(((4-formyl-5-hydroxy-6-methylpyridin-3-yl)methoxy)(phenoxy)phosphorylamino)-3-(4-hydroxyphenyl)propanoate]	2.2	75.9
Cc1ncc(COP(=O)(N[C@@H](C)C(=O)OC2CCN(C)CC2)Oc2ccccc2)c(C=O)c1O (stereo partly drawn) [Compound 16xxxi, (2S)-1-Methylpiperidin-4-yl 2-(((4-formyl-5-hydroxy-6-methylpyridin-3-yl)methoxy)(phenoxy)phosphorylamino)propanoate]	0.4	13.8
COCCOC(=O)[C@H](C)NP(=O)(OCc1cnc(C)c(O)c1C=O)Oc1ccccc1 (stereo partly drawn) [Compound 16xxxii, (2S)-2-Methoxyethyl 2-(((4-formyl-5-hydroxy-6-methylpyridin-3-yl)methoxy)(phenoxy)phosphorylamino)propanoate]	4.9	144.1
COC(=O)[C@@H]1CCCN1P(=O)(OCc1cnc(C)c(O)c1C=O)Oc1ccccc1 (stereo partly drawn) [Compound 16xxxiii, (2S)-Methyl 1-(((4-formyl-5-hydroxy-6-methylpyridin-3-yl)methoxy)(phenoxy)phosphoryl)pyrrolidine-2-carboxylate]	0.4	11.8
Cc1ncc(COP(=O)(N[C@@H](C)C(=O)Oc2ccc3c(c2)CCCC3)Oc2ccccc2)c(C=O)c1O (stereo partly drawn) [Compound 16xxxiv, (2S)-5,6,7,8-Tetrahydronaphthalen-2-yl 2-(((4-formyl-5-hydroxy-6-methylpyridin-3-yl)methoxy)(phenoxy)phosphorylamino)propanoate]	4.9	144.1
Cc1ncc(COP(=O)(N[C@@H](C)C(=O)OC(C)C)Oc2ccc(Br)cc2F)c(C=O)c1O (stereo partly drawn) [Compound 16xxxix, (2S)-Isopropyl 2-((4-bromo-2-fluorophenoxy)((4-formyl-5-hydroxy-6-methylpyridin-3-yl)methoxy)phosphorylamino)propanoate]	2.3	92.0
Cc1ncc(CO[P@@](=O)(N[C@@H](C)C(=O)OC(C)C)Oc2ccccc2)c(/C=N/C2CCCC2)c1O [Compound 16xxxvi, (S)-Isopropyl 2-((S)-((4-((E)-(cyclopentylimino)methyl)-5-hydroxy-6-methylpyridin-3-yl)methoxy)(phenoxy)phosphorylamino)propanoate]	3.8	152.0
Cc1ccc(OP(=O)(N[C@@H](C)C(=O)OC(C)C)OCc2cnc(C)c(O)c2C=O)cc1 (stereo partly drawn) [Compound 16xxxvii, (2S)-Isopropyl 2-(((4-formyl-5-hydroxy-6-methylpyridin-3-yl)methoxy)(p-tolyloxy)phosphorylamino)propanoate]	0.3	12.0
